Data set [1] can be described thus: Pilot pharmacokinetic study in mice. Type of data set: in vivo, mouse. The conditions noted are these: for AUC(0-t): read-out: AUC0-24. On the procedure: To establish a standard assay for RC16 detection and the half-life of RC16 in murine blood, a basic pilot pharmacokinetic study was performed using 1 animal per timepoint. Non-tumor bearing, female, athymic nude mice were treated with RC16 by i.v. or p.o.at doses of 1 mg/kg and 2 mg/kg, respectively. At 2, 4, 6, 12, 24 and 48 h post RC16 administration, a single mouse was anesthetized in an induction chamber with 5.0% isoflurane and an O2 flow rate of 0.8 L/min. Each mouse was transferred to a nose cone supplying 5.0% isoflurane with a O2 flow rate of 0.8 L/min. After confirming sedation by testing hind footpads, each mouse was subjected to exsanguination by cardiac puncture. Blood samples were collected in BD Microtainers (BD, Franklin Lakes, NJ). Plasma was separated by centrifugation at 2000×g for 10 min at 4°C and stored at −80°C until analysis. The RC16 concentration in plasma was determined by liquid LC-MS/MS.
Chromatographic separation was achieved using a Thermo Scientific Accela UHPLC system with HTS PAL autosampler and an Agilent ZORBAX Extend C18 column (50 × 2.1 mm I.D, 3.5 μm particle size) with a C18 guard cartridge maintained at 35°C. A 6.0 min linear gradient program with water/0.3% formic acid as mobile phase A and acetonitrile/0.3% formic acid as mobile phase B at a constant flow rate of 400 μL/min was applied for elution: 0.0 min 25% B, 1.0 min 25% B, 3.0 min 95% B, 4.5 min 95% B, 4.6 min 25% B and 6.0 min 25% B. The autosampler sample draw was set to 4°C, and a divert valve was used (0.0–2.0 min) to prevent early eluting compounds from entering the MS. Selective reaction monitoring with unit resolution was used for MS detection under positive mode. Transition channels from the protonated molecular ion to selected product ion were 377.33 > 153.15 for RC16 and 251.20 > 153.15 for internal standard RC7, respectively. Parameters optimized with a direct infusion of analyte and IS using a syringe pump were as follows: spray voltage, 5000 V; sheath gas and auxiliary gas, 25 and 15 (arbitrary unit), respectively; capillary temperature, 325°C; collision gas pressure, 1.5mTorr and skimmer offset, 10 eV. Tube lens offset was 100 eV for both RC16 and RC7, respectively. Scan time was 0.03 s. Collision energies were 40 eV for RC16 and 33 eV for RC7. Thermo Scientific LCQuan software was employed for system control and data processing.

A further data set has as its system SH-SY5Y cells. In words: Caspase activation (western blot, fluorimetric assay). The class given is cell-based. On the procedure:
Cells with or without RCn treatment were washed with PBS and lysed on ice for 30 min in lysis buffer containing protease and phosphatase inhibitors. Protein concentrations were determined with the Bio-Rad protein assay kit. 50 μg of total protein was separated on 12% SDS-PAGE at 100 V for 1 h and then transferred onto a nitrocellulose membrane using a wet blotting apparatus (Bio-Rad Laboratories) at 20 V overnight. Proteins were detected by enhanced chemiluminescence detection reagents (Amersham Biosciences). The antibodies used for immunoblotting were: caspases 3, 8, 9, and PARP were diluted 1:100 in blocking reagent (Cell Signaling Technology). The exposure time was the same for all the antibodies. Blots were stripped and reprobed with anti-β-tubulin diluted 1:10,000 in blocking reagent (Santacruz Biotechnology) used as the loading control.
Detection of caspase activity was evaluated by ApoFluor Green Apoptosis Detection kits specific for: caspase-1 and caspase-4; caspase-2, caspase-3 and caspase-7; caspase-6, caspase-8, caspase-9, caspase-10, and caspase-13 (MP Biochemicals), according to the manufacturer’s instructions. […] After 1 h incubation samples were washed and analyzed by flow cytometry (FACScan, Becton Dickinson) equipped with a 15-mW argon ion laser at 488 nm ([16]).
(Immunoblotting shows a protein as a band on a membrane.)

The test system of the next data set is A673. The data set is described as follows: Intracellular ROS assay. Conditions: A673, 5 μM RC16, 15 h. Type of data set: cell-based, human. On the procedure: Intracellular ROS were measured by OxiSelect™ Intracellular ROS Assay Kit (Cell Biolabs) following the manufacturer’s instructions. Briefly, cells (1 × 10^5/mL) were washed twice in PBS and incubated with 5 μM 2’,7’-dichlorodihydrofluorescein diacetate (H2DCFDA) 1 h at 37°C. After PBS washes, the medium was changed with a new one containing 5 μM RC16 for 15 h and 24 h. At the end of the treatment samples were washed with PBS and a mixture of medium and cell lysis buffer (1:1) was added for 5 min at 37°C. The fluorescence was read by a fluorimetric plate reader (Spectra max M2, Molecular Device). Excitation wavelength was 480 nm and emission wavelength was 530 nm.

The subject of the next data set is S462.TY cells. In words: Interaction of RC16 with sialic acid (MTT). The class given is cell-based, human. The conditions noted are these: 24 h. On the procedure: Neuraminidase was used to cleave the sialic acid residues from the polysialilated glycoproteins and gangliosides of the tumor cell surface and the anticancer activity of RC16 was subsequently tested in comparison with the cells not exposed to Neuraminidase. Cells were seeded on 96 well plates at a density of 2 × 10^4 cells /plate and after 24 h were exposed to 50 IU/mL Neuraminidase Type VI from Clostridium Perfrigens (Sigma) for 3 h. Cells were washed 3 times with PBS and afterwards treated with RC16 . The effect on cell number was evaluated after 24 h by MTT assay in comparison with cells not treated with Neuraminidase. The RC16 –sialic acid interaction was also evaluated by adding sialic acid to the culture medium in stoichiometric amount with respect to RC16. In this experiment cells seeded on 96 well plates at a density of 2 × 10^4 cells /plate and after 24 h were treated with a mixture of RC16 : sialic acid (3 μM : 3 μM). After 24 h the effect on cell number was evaluated by MTT assay in comparison with cells treated with pure RC16 or pure sialic acid at the same concentration (3 μM) of the mixture.

For data set [2], the system named is Human Foreskin Keratinocytes (differentiated). The data set is described as follows: MTT cell proliferation assay, normal keratinocytes. Type of data set: cell-based. The conditions noted are these: Keratinocyte, normal cells, read-out: Cell killing activity IC50. On the procedure:
Cells were plated in 96-well tissue culture plates at a density of 1 × 10^3 cells/well, allowed to attach 24 h, and then left untreated or treated with growth medium containing different concentrations of the tested RCn compounds previously dissolved in PBS. After different time periods the cell vitality was determined by MTT assay according to the manufacture’s instruction (Promega). Results are reported as the micromolar concentration of RCn reducing cell survival to 50% (IC50).
In general terms: Formazan colour is commonly taken as a measure of viable cells.

Read-outs that look alike come from different tables or passages of the source.

As usually defined, the half-life is the time in which the quantity being followed falls by half. For orientation: bioavailability means dose-corrected exposure relative to a reference, in per cent. The term IC50 denotes the concentration at which inhibition is half-maximal. In the case of `CCCCCCCCCCCCCCC1CN2CCCN3CCCCCC132` (stereo not shown) [RC16, 2-tetradecyl-4,8-diazatricyclo[6.5.0.0^1,^4]tridecane], the half-life in data set [1] (female, athymic nude, mouse, plasma, iv, 1 mg/kg i.v., nude mice, read-out: Half-life (converted)) is 5.4 h; in data set [1] (female, athymic nude, mouse, plasma, 2 mg/kg oral, non-compartmental analysis, nude mice, read-out: Apparent half-life (converted)), 5.2 h. Further, the bioavailability in data set [1] (female, athymic nude, mouse, plasma, po, 2 mg/kg, estimated from pilot pharmacokinetic data) is roughly 6%. The Cmax is 12.5 ng/mL in data set [1] (female, athymic nude, mouse, plasma, 2 mg/kg oral, at 4 h, nude mice, read-out: Maximum observed plasma concentration (Cmax)) and 153 ng/mL in data set [1] (female, athymic nude, mouse, plasma, IV, 1 mg/kg, nude mice, read-out: Cmax). Moreover, the AUC(0-t) in data set [1] (female, athymic nude, mouse, plasma, IV, 1 mg/kg, nude mice) was determined as 1390 ng·h/mL; in data set [1] (female, athymic nude, mouse, plasma, PO, 2 mg/kg, nude mice), 160 ng·h/mL. The compound also gave a concentration at 2 h in data set [1] (female, athymic nude, plasma, intravenous, 1 mg/kg i.v., 2 h, nude mice, 1 mouse per time point) of 153 ng/mL. Moreover, the concentration at 24 h in data set [1] (female, athymic nude, plasma, intravenous, 1 mg/kg i.v., nude mice, 1 mouse per time point) stood at 11.4 ng/mL; in data set [1] (female, athymic nude, plasma, 2 mg/kg oral, nude mice, 1 mouse per time point), 0.5 ng/mL. In data set [1] (female, athymic nude, plasma, 2 mg/kg oral, 48 h, nude mice, 1 mouse per time point), this compound yielded a concentration at 48 h of 4.6 ng/mL. Besides, the Achieved plasma concentrations in data set [1] (i.v. dose of 1 mg/kg) is 150 to 200 ng/mL. In addition, the “Caspase activation, fluorimetric assay (caspases 1, 2, 3, 6, 8, 9, 10, 13)” value in the data set on SH-SY5Y cells (5 μM RC16, 1-24 h) is given as “all the above caspases were activated already at 4 h”. Further, the “Caspase activation, western blot” value with SH-SY5Y cells (5 μM RC16, 2-36 h) is “activation of caspases 3, 8 and 9”. In addition, the “Intracellular ROS levels relative to control” value with A673 is given as “more than twice the control values”. Also, the “Anticancer activity after Neuraminidase pre-treatment of cells” value in the data set on S462.TY cells (RC16 3 μM, versus cells not exposed to Neuraminidase) was “decreased the anticancer activity of RC16”. For the same compound, the “Anticancer activity with sialic acid added to culture medium” value with S462.TY cells (RC16 : sialic acid 3 μM : 3 μM, versus pure RC16) was “decreased the RC16 anticancer activity”. In addition, the IC50 worked out at 15.2 µM in data set [2] (24 h) and 13.5 µM in data set [2] (48 h).

Source of the values: publication PMC5040747, “Preparation and Evaluation of a Novel Class of Amphiphilic Amines as Antitumor Agents and Nanocarriers for Bioactive Molecules” (Pharmaceutical Research, 2016).
